Values quoted from earlier work, collected in article PMC12375981 (Protein Science : A Publication of the Protein Society, 2025).
Marks after values point to notes of the source that are not given here.

Tests used:
WT 3CL^pro = WT 3CL^pro (Severe acute respiratory syndrome coronavirus 2, UniProt P0DTD1); details: cited from earlier work
SARS‐CoV‐2 3CL^pro = details: cited from earlier work

SMILES | K D ^app (WT 3CL^pro) | increase of the strength of dimerization (SARS‐CoV‐2 3CL^pro)
COc1cccc2[nH]c(C(=O)N[C@@H](CC(C)C)C(=O)N[C@@H](C[C@@H]3CCNC3=O)C(=O)COP(=O)(O)O)cc12 [lufotrelvir] | 17 ± 2 ^b nM | –
CC(C)(C)[C@H](NC(=O)C(F)(F)F)C(=O)N1C[C@H]2[C@@H]([C@H]1C(=O)N[C@H](C#N)C[C@@H]1CCNC1=O)C2(C)C [nirmatrelvir] | – | about seven
